Experimental data from patent US10899759B2, “Positive allosteric modulators of the muscarinic acetylcholine receptor M1” (Vanderbilt University, priority 2016, dated 2021).

Target: T1, human mAChR M1 (Homo sapiens, UniProt P11229)
T1 construct: host or cells: CHO-K1
T1 sequence (P11229 1-460): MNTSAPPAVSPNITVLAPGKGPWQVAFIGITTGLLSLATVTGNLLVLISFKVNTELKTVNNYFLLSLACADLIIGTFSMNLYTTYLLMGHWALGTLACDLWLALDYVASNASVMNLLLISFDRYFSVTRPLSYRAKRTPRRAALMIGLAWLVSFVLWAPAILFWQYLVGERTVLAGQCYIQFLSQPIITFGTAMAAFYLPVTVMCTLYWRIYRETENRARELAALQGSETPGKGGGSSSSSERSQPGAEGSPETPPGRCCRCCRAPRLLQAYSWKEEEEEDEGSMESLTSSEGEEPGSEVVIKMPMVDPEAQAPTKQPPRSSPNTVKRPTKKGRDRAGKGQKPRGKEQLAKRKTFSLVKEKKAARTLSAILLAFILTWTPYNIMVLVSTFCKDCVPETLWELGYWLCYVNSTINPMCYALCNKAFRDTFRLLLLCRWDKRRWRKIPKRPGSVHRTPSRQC
Test: mAChR M1 cell-based functional assay (calcium mobilization, Fluo-4, FDSS)
Conditions: CHO-K1 cells stably expressing hM1; for Emax: EC20 acetylcholine response, read-out: Human M1 Emax; for EC50: positive allosteric modulator activity as increase in the EC20 acetylcholine response
How it was run: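 CHO-K1 cells stably expressing muscarinic receptor, loaded with Fluo-4; 11-point 1:3 compound series added and calcium flux read over 300 s at 1 Hz. Agonism from direct calcium rise, PAM activity as potentiation of EC20 acetylcholine, antagonism as decrease of EC80 acetylcholine; four-parameter logistic fits.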

SMILES | Emax [%] | EC50 [nM]
Cn1ccc(-c2ccc(Cc3cc(C(=O)NC4CCOCC4(C)C)nc4sccc34)cn2)n1 (stereo not drawn) [Compound 105, N-(3,3-dimethyltetrahydropyran-4-yl)-4-[[6-(1-methylpyrazol-3-yl)-3-pyridyl]methyl]thieno[2,3-b]pyridine-6-carboxamide] | 63.5 | 370
Cn1cc(-c2ccc(Cc3cc(C(=O)NC4CCOC(C)(C)C4)nc4c3ccn4C)cn2)cn1 (stereo not drawn) [Compound 49, N-(2,2-dimethyltetrahydropyran-4-yl)-1-methy1-4-[[6-(1-methylpyrazol-4-yl)-3-pyridyl]methyl]pyrrolo[2,3-b]pyridine-6-carboxamide] | 87.9 | 180
Cn1ccc(-c2ccc(Cc3cc(C(=O)NC4CCOCC4(C)C)nc4c3ccn4C)cn2)n1 (stereo not drawn) [Compound 147] | 81.6 | 190
Cc1nc(-c2ccc(Cc3cc(C(=O)NC4CCOC(C)(C)C4)nc4sccc34)cc2)co1 (stereo not drawn) [Compound 131, N-(2,2-dimethyltetrahydropyran-4-yl)-4-[[4-(2-methyloxazol-4-yl)phenyl]methyl]thieno[2,3-b]pyridine-6-carboxamide] | 33.3 | 
Cn1ccc(-c2ccc(Cc3cc(C(=O)NCC4CCOCC4)nc4sccc34)cc2)n1 [Compound 94, 4-[[4-(1-methylpyrazol-3-yl)phenyl]methyl]-N-(tetrahydropyran-4-ylmethyl)thieno[2,3-b]pyridine-6-carboxamide] | 61.4 | 630
Cn1ccc(-c2ccc(Cc3cc(C(=O)NC4CC5(COC5)C4)nc4sccc34)cn2)n1 [Compound 109, 4-[[6-(1-methylpyrazol-3-yl)-3-pyridyl]methyl]-N-(2-oxaspiro[3.3]heptan-6-yl)thieno[2,3-b]pyridine-6-carboxamide] | 56.8 | 150
CC1CC(NC(=O)c2cc(Cc3ccc(-n4cccn4)cc3)c3ccsc3n2)CC(C)O1 (stereo not drawn) [Compound 73, N-(2,6-dimethyltetrahydropyran-4-yl)-4-[(4-pyrazol-1-ylphenyl)methyl]thieno[2,3-b]pyridine-6-carboxamide] | 68.1 | 370
CC1COCCC1NC(=O)c1cc(Cc2ccc(-c3ccn(C)n3)cc2)c2ccsc2n1 (stereo not drawn) [Compound 93, 4-[[4-(1-methylpyrazol-3-yl)phenyl]methyl]-N-(3-methyltetrahydropyran-4-yl)thieno[2,3-b]pyridine-6-carboxamide] | 59.5 | 740
Cn1ccc2c(Cc3ccc(-c4cscn4)cc3)cc(C(=O)N[C@@H]3CCOC3)nc21 [Compound 34, 1-methyl-N-[(3R)-tetrahydrofuran-3-yl]-4-[(4-thiazol-4-ylphenyl)methyl]pyrrolo[2,3-b]pyridine-6-carboxamide] | 54.8 | 2190
Cn1cc(-c2ccc(Cc3cc(C(=O)NC4CCOCC4(C)C)nc4sccc34)cn2)cn1 (stereo not drawn) [Compound 117, N-(3,3-dimethyltetrahydropyran-4-yl)-4-[[6-(1-methylpyrazol-4-yl)-3-pyridyl]methyl]thieno[2,3-b]pyridine-6-carboxamide] | 55.7 | 150
Cc1nc(-c2ccc(Cc3cc(C(=O)NCC4CCOC4)nc4sccc34)cc2)co1 (stereo not drawn) [Compound 138, 4-[[4-(2-methyloxazol-4-yl)phenyl]methyl]-N-(tetrahydrofuran-3-ylmethyl)thieno[2,3-b]pyridine-6-carboxamide] | 59.5 | 3150
Cn1ccc2c(Cc3ccc(-c4nccs4)cc3)cc(C(=O)NC3CC4(COC4)C3)nc21 [Compound 62, 1-methyl-N-(2-oxaspiro[3.3]heptan-6-yl)-4-[(4-thiazol-2-ylphenyl)methyl]pyrrolo[2,3-b]pyridine-6-carboxamide] | 60.6 | 870
CC1(C)CC(NC(=O)c2cc(Cc3ccc(-n4cccn4)cc3)c3ccsc3n2)CCO1 (stereo not drawn) [Compound 72, N-(2,2-dimethyltetrahydropyran-4-yl)-4-[(4-pyrazol-1-ylphenyl)methyl]thieno[2,3-b]pyridine-6-carboxamide] | 69 | 1420
Cn1ccc2c(Cc3ccc(-c4cscn4)cc3)cc(C(=O)NCC3CCOCC3)nc21 [Compound 26, 1-methyl-N-(tetrahydropyran-4-ylmethyl)-4-[(4-thiazol-4-ylphenyl)methyl]pyrrolo[2,3-b]pyridine-6-carboxamide] | 52.6 | 410
COCCNC(=O)c1cc(Cc2ccc(-c3coc(C)n3)cc2)c2ccsc2n1 [Compound 143, N-(2-methoxyethyl)-4-[[4-(2-methyloxazol-4-yl)phenyl]methyl]thieno[2,3-b]pyridine-6-carboxamide] | 60.8 | 280

Continued by falling EC50, values first:

Emax [%] | EC50 [nM] | SMILES
75.4 | 140 | Cn1ccc2c(Cc3ccc(-c4cscn4)cc3)cc(C(=O)NC3CC4(COC4)C3)nc21 [Compound 23, 1-methyl-N-(2-oxaspiro[3.3]heptan-6-yl)-4-[(4-thiazol-4-ylphenyl)methyl]pyrrolo[2,3-b]pyridine-6-carboxamide]
58.4 | 110 | CC1COCCC1NC(=O)c1cc(Cc2ccc(-c3ccn(C)n3)nc2)c2ccsc2n1 (stereo not drawn) [Compound 106, 4-[[6-(1-methylpyrazol-3-yl)-3-pyridyl]methyl]-N-(3-methyltetrahydropyran-4-yl)thieno[2,3-b]pyridine-6-carboxamide]
80.1 | 100 | Cc1nc(-c2ccc(Cc3cc(C(=O)N[C@H]4CCCC[C@@H]4O)nc4c3ccn4C)cc2)co1 [Compound 52, N-[(1S,2S)-2-hydroxycyclohexyl]-1-methyl-4-[[4-(2-methyloxazol-4-yl)phenyl]methyl]pyrrolo[2,3-b]pyridine-6-carboxamide]
59.7 | 90 | CC1CC(NC(=O)c2cc(Cc3ccc(-c4ccn(C)n4)nc3)c3ccsc3n2)CC(C)O1 (stereo not drawn) [Compound 104, N-(2,6-dimethyltetrahydropyran-4-yl)-4-[[6-(1-methylpyrazol-3-yl)-3-pyridyl]methyl]thieno[2,3-b]pyridine-6-carboxamide]
75.1 | 70 | Cn1ncc2c(Cc3ccc(-c4cscn4)cc3)cc(C(=O)N[C@H]3CCOC[C@@H]3O)nc21 [Compound 27, N-[(3R,4S)-3-hydroxytetrahydropyran-4-yl]-1-methyl-4-[(4-thiazol-4-ylphenyl)methyl]pyrazolo[3,4-b]pyridine-6-carboxamide]
58.6 | 70 | COCCNC(=O)c1cc(Cc2ccc(-n3cccn3)cc2)c2ccsc2n1 [Compound 85, N-(2-methoxyethyl)-4-[(4-pyrazol-1-ylphenyl)methyl]thieno[2,3-b]pyridine-6-carboxamide]
62.4 | 50 | Cn1ccc(-c2ccc(Cc3cc(C(=O)N[C@H]4CCCC[C@@H]4O)nc4sccc34)cc2)n1 [Compound 88, N-[(1S,2S)-2-hydroxycyclohexyl]-4-[[4-(1-methylpyrazol-3-yl)phenyl]methyl]thieno[2,3-b]pyridine-6-carboxamide]
53.5 | 40 | Cn1cc(-c2ccc(Cc3cc(C(=O)NC4COC4)nc4sccc34)cn2)cn1 [Compound 124, 4-[[6-(1-methylpyrazol-4-yl)-3-pyridyl]methyl]-N-(oxetan-3-yl)thieno[2,3-b]pyridine-6-carboxamide]
73.9 | 30 | Cn1cc(-c2ccc(Cc3cc(C(=O)N[C@H]4CCCC[C@@H]4O)nc4c3ccn4C)cn2)cn1 [Compound 46, N-[(1S,2S)-2-hydroxycyclohexyl]-1-methyl-4-[[6-(1-methylpyrazol-4-yl)-3-pyridyl]methyl]pyrrolo[2,3-b]pyridine-6-carboxamide]
57.3 | 30 | Cn1ccc2c(Cc3ccc(-c4nccs4)cc3)cc(C(=O)N[C@H]3CCOC[C@@H]3O)nc21 [Compound 59, N-[(3R,4S)-3-hydroxytetrahydropyran-4-yl]-1-methy1-4-[(4-thiazol-2-ylphenyl)methyl]pyrrolo[2,3-b]pyridine-6-carboxamide]
64.7 | 20 | CCn1ccc2c(Cc3ccc(-n4cccn4)cc3)cc(C(=O)N[C@H]3CCOC[C@@H]3O)nc21 [Compound 9, 1-ethyl-N-[(3R,4S)-3-hydroxytetrahydropyran-4-yl]-4-[(4-pyrazol-1-ylphenyl)methyl]pyrrolo[2,3-b]pyridine-6-carboxamide]
59.3 | 20 | Cn1ccc2c(Cc3ccc(-c4cscn4)cc3)cc(C(=O)N[C@H]3CCOC[C@@H]3O)nc21 [Compound 21, N-[(3R,4S)-3-hydroxytetrahydropyran-4-yl]-1-methyl-4-[(4-thiazol-4-ylphenyl)methyl]pyrrolo[2,3-b]pyridine-6-carboxamide]
74.3 | 10 | Cn1cc(-c2ccc(Cc3cc(C(=O)N[C@H]4CCOC[C@@H]4O)nc4c3ccn4C)cn2)cn1 [Compound 45, N-[(3R,4S)-3-hydroxytetrahydropyran-4-yl]-1-methyl-4-[[6-(1-methylpyrazol-4-yl)-3-pyridyl]methyl]pyrrolo[2,3-b]pyridine-6-carboxamide]
36.4 | 10 | Cn1ccc(-c2ccc(Cc3cc(C(=O)NC4CCOC(C)(C)C4)nc4sccc34)cc2)n1 (stereo not drawn) [Compound 90, N-(2,2-dimethyltetrahydropyran-4-yl)-4-[[4-(1-methylpyrazol-3-yl)phenyl]methyl]thieno[2,3-b]pyridine-6-carboxamide]
